The nature of data set [1]: Acute toxicity assay against Daphnia magna. The following applies: Daphnia magna, in vivo, pH 7.5. The protocol: (§1) The general toxicity of the tested compounds was evaluated using Daphnia magna (Straus, 1820). Daphnia magna was originated from a culture maintained parthenogenetically at the Institute of Zoology (Laboratory of Systematics and Molecular Phylogeny).
(§2) The test design was based on ISO 6341 : 2012. The test-organisms Daphnia magna Straus were fed with Chlorella vulgaris. These unicellular algae were grown using aseptic technology to exclude contamination of the culture by bacteria, algae or protozoa. Chlorella vulgaris were cultivated in Prat's growth medium containing KNO3 (1 μM), MgSO4·7H2O (40 μM), K2HPO4·3H2O (400 μM), FeCl3·6H2O (3.6 μM) in H2O distilled (adjusted the pH to 7.0, autoclaved and stored at 5°C).
(§3) D. magna was maintained in aerated aqueous straw infusion growth media supplemented with CaCl2 ([…]), NaHCO3 (2.59 g/L), KCl (0.23 g/L), and MgSO4, 7H2O (4.93 g/L). (pH∼7.5 ± 0.2; O2 ≥ 6.0 mg/L).
(§4) Juveniles were selected according to their size and kept in fresh medium for 24 h. D. magna was cultured in Costar® 24-well culture clear sterile multiple well plates covered by a lid to prevent the possibility of contamination and evaporation but at the same time to allow gaseous exchange between air and culture medium. Each well contained 10 daphnids in 1000 μL final volume of each dilution of the tested compounds.
(§5) The bioassay was then repeated at the concentrations ranging from 0.1 to 100 μM (0.1, 1, 10, and 100 μM) in order to determine LC50 for each compound, including doxorubicin (the positive control). Aqueous straw infusion growth media was used to dilute the stock solutions to the required concentrations. […] A 0.1% solution of DMSO in aerated medium (pH∼7.5 ± 0.2; O2 ≥ 6.0 mg/L) was used as a negative control. Throughout the experiment, the juvenile daphnids were incubated at 22 ± 2 °C, using a 16 h/8 h light/dark cycle (500–1000 lx). The mobility (viability) of the test organisms was observed after the 24-h exposure. The experiment was performed in triplicate.
(§6) The percentage of viability (V (%)) of Daphnia magna was calculated according to the formula:(1) V%=Nsample/Ncontrol×100.
(§7) N - Number of viability of Daphnia magna.
(§8) The compounds median lethal concentration that kills 50% of the juvenile daphnids (LC50) values were calculated from the dose-response equation determined by the least squares fit method.

The test system of data set [2] is human cervical epithelial (HeLa) cell line. Put plainly: Antiproliferative activity (MTS and Resazurin assays), HeLa. The note with it: for IC50: HeLa; for SI (selectivity index): IC50(MDCK)/IC50(HeLa). Type of data set: cell-based. On the procedure: (§9) The antiproliferative activity of the studied substances was determined toward a series of cancer cell lines (HL-60 (ATCC CCL-240), BxPC-3 (ATCC CRL-1687), HeLa (ATCC CCL-2), RD (ATCC CCL-136)), and a normal cell line (MDCK (ATCC CCL-34)). These cell lines were cultured in accordance with the previously described method. Determination of the number of viable cells after cultivation in the presence of various concentrations of the studied substances was carried out by the MTS and Resazurin assays according to the previously described method. The 10-mM stock solutions of the studied compounds as well as the reference compound (doxorubicin) were prepared by dissolving 10 μmol of the corresponding compound in 1 mL of DMSO. The 0.1, 1, 10, and 100 μM solutions were prepared by dilution of the stock solutions with the corresponding medium and used for the study of antiproliferative activity.
(Formazan colour is commonly taken as a measure of viable cells.)

Data set [3] concerns human epithelial pancreatic adenocarcinoma (BxPC-3) cell line. In words: Antiproliferative activity (MTS and Resazurin assays), BxPC-3. Type of data set: cell-based. The note with it: for SI (selectivity index): IC50(MDCK)/IC50(BxPC-3). The protocol: as §9
Data set [4] concerns human muscle rhabdomyosarcoma (RD) cell line. Put plainly: Antiproliferative activity (MTS and Resazurin assays), RD. The note with it: for IC50: RD; for SI (selectivity index): IC50(MDCK)/IC50(RD). It is filed as cell-based. On the procedure: as §9
Data set [5] concerns normal kidney epithelial (MDCK) cell line. Put plainly: Antiproliferative activity (MTS and Resazurin assays), MDCK normal cell line. Type of data set: cell-based. On the procedure: as §9
Data set [6] deals with human leukemia HL-60 cell line. Put plainly: Antiproliferative activity (MTS and Resazurin assays), HL-60. It is filed as cell-based. The following applies: for inhibition at 0.1 µM / inhibition at 1 µM / inhibition at 10 µM: read-out: Inhibition of cell proliferation, (%); for IC50: HL-60, Table 3; for SI (selectivity index): IC50(MDCK)/IC50(HL-60). The protocol: as §9
The next data set has as its system Daphnia magna. Put plainly: Acute toxicity assay against Daphnia magna. The following applies: 24 h exposure; for LC50: Daphnia magna. On the procedure: as §1, §2, §3, §4, §5, §6, §7, §8
A short description of data set [7]: Antiradical activity, ABTS•+ method. The note with it: read-out: IC50 toward ABTS•+ radical cation. On the procedure: The ABTS^•+ method was applied for the determination of antiradical activity of the studied substances. Standard solutions of ABTS^•+ radical cations and tested substances as well as the conditions of spectrophotometric measurements and calculations of inhibition were made as described. The 10-mM stock solutions of the studied compounds as well as the reference compound (trolox) were prepared by dissolving 10 μmol of the corresponding compound in 1 mL of DMSO. The 1, 10, 100, and 1000 μM solutions were prepared by the dilution of stock solutions with DMSO. After that, 20 μL of each tested compound solutions was transferred in a 96-well microtiter plate, and 180 μL of ABTS^•+ working solution was added to receive solutions with final concentrations of tested compounds 0.1, 1, 10, and 100, respectively.

Data set [8] has as its system Candida albicans (ATCC 10231). Put plainly: Antifungal activity, serial dilutions in liquid broth, C. albicans. It is filed as cell-based. On the procedure: (§10) Antibacterial and antifungal properties of the studied substances were determined on a series of standard strains of Gram-positive microorganisms (Staphylococcus aureus (ATCC 25923)), Gram-negative microorganisms (Escherichia coli (ATCC 25922)), and fungi (Candida albicans (ATCC 10231)) using the method of serial dilutions in liquid broth. Stock solutions of the studied compounds as well as the reference compounds (furacillinum and nystatin) were prepared by dissolving 10 mg of the corresponding compound in 1 mL of DMSO. After that, the starting solutions (1 mg/mL) were prepared by tenfold dilution of the stock solution with nutrition medium (2% of peptonate bullion). The next dilutions were prepared by serial double dilution with the nutrition medium.

The test system of data set [9] is Staphylococcus aureus (ATCC 25923). Put plainly: Antibacterial activity, serial dilutions in liquid broth, S. aureus. It is filed as cell-based. The following applies: S. aureus (G+). On the procedure:
as §10

In data set [10] the test system is Escherichia coli (ATCC 25922). Put plainly: Antibacterial activity, serial dilutions in liquid broth, E. coli. Type of data set: cell-based. The note with it: E. coli (G-). The protocol: as §10
Where [11] appears, read: other: exposure in the test medium (immersion).

SMILES strings stand for the structures. Like-named read-outs stand apart in the source and are kept apart here. Some results are limits rather than exact numbers.

For `COc1cccc2c1C(=O)c1c(O)c3c(c(O)c1C2=O)C[C@@](O)(C(=O)CO)C[C@@H]3O[C@H]1C[C@H](N)[C@H](O)[C@H](C)O1` [Doxorubicin, doxorubicin, reference compound], in [1] (setting [11]), the viability (in general, the share of living cells, or the viability signal relative to a control) at 24 h, 0.1 µM came out at 87.2 ± 7.3%. Besides, in data set [1] (setting [11]), the viability at 24 h, 1 µM was 76.9 ± 7.3%. The molecule further returned a viability at 24 h, 10 µM in data set [1] (setting [11]) of 25.6 ± 7.3%. In data set [1] (setting [11]), this molecule had a viability at 24 h, 100 µM of 0%. In addition, the LC50 – broadly, the concentration lethal to half of the exposed cells or organisms – at 24 h in data set [1] is 3.3 ± 1.1 µM. The IC50 (commonly the point on the concentration scale where inhibition reaches its midpoint) in data set [2] (Homo sapiens) turned out to be 10 ± 0.4 µM; in data set [3] (Homo sapiens, BXPC-3), 3.7 ± 0.3 µM; in data set [4] (Homo sapiens), 16.2 ± 0.6 µM; in data set [5] (Canis lupus familiaris), 7.1 ± 0.3 µM; in [6] (Homo sapiens), 0.2 ± 0.1 µM. Further, the “SI (selectivity index)” value in data set [2] amounted to 0.71; in [3], 1.9; in data set [4], 0.44; in data set [6], 35.5. Also, the inhibition at 0.1 µM in data set [6] (Homo sapiens, HL-60, 0.1 μM) was 16.5 ± 1.8%. The inhibition at 1 µM in [6] (Homo sapiens, HL-60, 1 μM) came to 92.9 ± 0.7%. Also, the inhibition at 10 µM in [6] (Homo sapiens, HL-60, 10 μM) was 95 ± 0.6%.
For the molecule `C=CCNC(=S)N/N=C/c1cccnc1` [HL^a], the inhibition at 0.1 µM in data set [6] (Homo sapiens, HL-60, 0.1 μM) turned out to be 0.9 ± 0.2%. Also, in [6] (Homo sapiens, HL-60, 1 μM), the inhibition at 1 µM amounted to 1.5 ± 0.5%. Further, the inhibition at 10 µM in [6] (Homo sapiens, HL-60, 10 μM) turned out to be 6.1 ± 0.3%.
For `C=CCNC(=NN=Cc1ccccn1)[S][Cu][Cl]` [compound 2, [Cu(L)Cl]], the “V, (%) percentage of viability of Daphnia magna” value (from here on “V, (%) percentage”) with Daphnia magna (0.1 μM) amounted to 102.6 ± 0.0%; with Daphnia magna (1 μM) it was 97.4 ± 7.3%; in the data set with Daphnia magna (10 μM) it was 0.0%; in the data set on Daphnia magna (100 μM), 0.0%. Besides, in the data set with Daphnia magna, the LC50 was determined as 3.5 ± 2.8 µM. Also, the IC50 in [2] is 0.4 ± 0.03 µM; in [7], > 100 µM; in data set [3] (BxPC-3), 0.05 ± 0.02 µM; in [4], 0.13 ± 0.02 µM; in [5], 3 ± 0.4 µM; in data set [6], 0.1 ± 0.06 µM. Further, the “SI (selectivity index)” value in data set [2] was 7.5; in data set [3] it was 60; in data set [4], 23; in [6], 30. In addition, the MFC (usually the lowest tested concentration that kills the fungus rather than only halting it) in data set [8] is 31.3 µg/mL. In addition, the MIC (in general, the least concentration at which growth counts as inhibited) in data set [8] amounted to 15.6 µg/mL; in [9] it was 0.122 µg/mL; in data set [10], 3.91 µg/mL. In addition, the results for the MBC in [9] and in data set [10] were 0.244 µg/mL and 7.81 µg/mL, respectively. Besides, the “Inhibition of cell proliferation, (%)” value was found to be 40.2 ± 2.8% in [6] (HL-60, 0.1 μM); 99.2 ± 0.2% in [6] (HL-60, 1 μM); 99.4 ± 0.6% in [6] (HL-60, 10 μM).
For the molecule `C=CCNC(=NN=Cc1ccccn1)[S][Cu][Br]` [compound 3, [Cu(L)Br]], the “V, (%) percentage” value with Daphnia magna (0.1 μM) is 102.6 ± 0.0%; in the data set on Daphnia magna (1 μM), 97.4 ± 7.3%; with Daphnia magna (10 μM) it was 0.0%; with Daphnia magna (100 μM) it was 0.0%. Moreover, the LC50 in the data set on Daphnia magna turned out to be 3.5 ± 2.8 µM. For the same molecule, the IC50 in [2] stood at 0.3 ± 0.03 µM; in [7], 43 ± 2.1 µM; in data set [3] (BxPC-3), 0.06 ± 0.01 µM; in data set [4], 0.2 ± 0.1 µM; in data set [5] it was 6.2 ± 1.4 µM; in data set [6], 0.1 ± 0.04 µM. In addition, the “SI (selectivity index)” value in data set [2] worked out at 21; in data set [3] it was 103; in data set [4] it was 31; in [6] it was 62. Besides, in data set [8], the MFC was determined as 15.6 µg/mL. Also, the results for the MIC in [8], in data set [9] and in [10] were 7.81 µg/mL, 0.244 µg/mL and 7.81 µg/mL, respectively. Moreover, the MBC – broadly, the smallest concentration meeting the test's criterion for killing – came out at 0.488 µg/mL in [9] and 15.6 µg/mL in data set [10]. Also, the “Inhibition of cell proliferation, (%)” value is reported as 24.5 ± 1.9% in data set [6] (HL-60, 0.1 μM); 100.0 ± 0.3% in data set [6] (HL-60, 1 μM); 100.0 ± 0.1% in data set [6] (HL-60, 10 μM).
Turning to `C=CCNC(=NN=Cc1ccccn1)[S][Cu][O]C(C)=O.C=CCNC(=NN=Cc1ccccn1)[S][Cu][O]C(C)=O.O.O.O.O` [compound 4, [Cu2(L)2(CH3COO)2]·4H2O], the “V, (%) percentage” value was 76.9 ± 7.3% in the data set on Daphnia magna (0.1 μM), 66.7 ± 7.3% with Daphnia magna (1 μM), 0.0% with Daphnia magna (10 μM) and 0.0% in the data set on Daphnia magna (100 μM). This molecule also gave an LC50 in the data set with Daphnia magna of 1.3 ± 0.5 µM. For the same molecule, the IC50 in [2] amounted to 0.2 ± 0.02 µM; in data set [7] it was 40.3 ± 1.8 µM; in data set [3] (BxPC-3), 0.02 ± 0.01 µM; in data set [4] it was 0.05 ± 0.01 µM; in data set [5] it was 2 ± 0.2 µM; in [6], 0.1 ± 0.02 µM. Besides, the “SI (selectivity index)” value stood at 10 in data set [2], 100 in data set [3], 40 in data set [4] and 20 in data set [6]. The MFC in [8] turned out to be 62.5 µg/mL. Moreover, the results for the minimum inhibitory concentration (MIC) in data set [8], in [9] and in [10] were 31.3 µg/mL, 0.244 µg/mL and 1.95 µg/mL, respectively. For the same molecule, the MBC in [9] was determined as 0.488 µg/mL; in data set [10], 3.91 µg/mL. The “Inhibition of cell proliferation, (%)” value in [6] (HL-60, 0.1 μM) is given as 32.0 ± 2.3%; in data set [6] (HL-60, 1 μM) it was 99.8 ± 0.2%; in data set [6] (HL-60, 10 μM), 100.0 ± 0.2%.

Values taken from PMC9159852, “Synthesis, Structure, and Biologic Activity of Some Copper, Nickel, Cobalt, and Zinc Complexes with 2-Formylpyridine N^4-Allylthiosemicarbazone” (Bioinorganic Chemistry and Applications, 2022).
